Measurements as given in patent publication US12077503B2, “Substituted cyclic amides and their use as herbicides” (FMC CORPORATION, priority 2015, dated 2024).

Legend:
Assay type in all cases: in vivo
[1] = tested on: redroot pigweed (Amaranthus retroflexus); assay: Test G Pre-Emergence Protocol; details: Amaranthus retroflexus, pre-emergence, 312 h, evaluated after 13 days
Method in brief: (§1)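 Under a 24/16° C day/night regime with 14 h light and 65% humidity, sown pots were sprayed after one day with compound (15.625, 62.5 or 250 g/ha; 50:50 acetone/water, 0.5% Tween 20). Damage was assessed visually 13 days later, 0 to 100.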

[2] = tested on: barnyardgrass (Echinochloa crus-galli); assay: Test G Pre-Emergence Protocol; details: Echinochloa crus-galli, pre-emergence, 312 h, evaluated after 13 days
Method in brief: as §1

[3] = tested on: giant foxtail (Setaria faberi); assay: Test G Pre-Emergence Protocol; details: Setaria faberi, pre-emergence, 312 h, evaluated after 13 days
Method in brief: as §1

corn (Zea mays) [4] = assay: Test G Pre-Emergence Protocol; details: Zea mays, pre-emergence, 312 h, evaluated after 13 days
Method in brief: as §1

[5] = tested on: ivy-leaved morning glory (Ipomoea hederacea); assay: Test G Pre-Emergence Protocol; details: Ipomoea, pre-emergence, 312 h, evaluated after 13 days
Method in brief: as §1

[6] = tested on: velvetleaf (Abutilon theophrasti); assay: Test G Pre-Emergence Protocol; details: Abutilon theophrasti, pre-emergence, 312 h, evaluated after 13 days
Method in brief: as §1

[7] = tested on: redroot pigweed (Amaranthus retroflexus); assay: Test G Post-Emergence Protocol; details: Amaranthus retroflexus, post-emergence, 312 h
Method in brief: (§2)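 Seedlings grown 8 days in soil in a glasshouse (24/16 °C day/night, 14 h light, 65% humidity) were sprayed post-emergence with compound in acetone/water 50:50 plus 0.5% Tween 20 at 15.625, 62.5 or 250 g/ha. Damage was scored after 13 days on a 0–100 scale (100 = total damage).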

[8] = tested on: barnyardgrass (Echinochloa crus-galli); assay: Test G Post-Emergence Protocol; details: Echinochloa crus-galli, post-emergence, 312 h
Method in brief: as §2

[9] = tested on: giant foxtail (Setaria faberi); assay: Test G Post-Emergence Protocol; details: Setaria faberi, post-emergence, 312 h
Method in brief: as §2

corn (Zea mays) [10] = assay: Test G Post-Emergence Protocol; details: Zea mays, post-emergence, 312 h
Method in brief: as §2

[11] = tested on: ivy-leaved morning glory (Ipomoea hederacea); assay: Test G Post-Emergence Protocol; details: Ipomoea, post-emergence, 312 h
Method in brief: as §2

[12] = tested on: velvetleaf (Abutilon theophrasti); assay: Test G Post-Emergence Protocol; details: Abutilon theophrasti, post-emergence, 312 h
Method in brief: as §2

## COc1cc([C@@H]2CN(C)C(=O)[C@H]2C(=O)Nc2cccc(F)c2F)ccc1Cl (racemic) [Compound 1474]
[1]; 15.625 g ai/ha, read-out: Pigweed, Redroot damage rating (100=total damage to plant; 0=no damage to plant)
  pest or weed control at 15.625 g/ha: 0%
[1]; 62.5 g ai/ha, 100=total damage to plant, 0=no damage to plant, read-out: plant damage rating, Pigweed, Redroot
  pest or weed control at 62.5 g/ha: 0%
[1]; 250 g ai/ha, read-out: Pigweed, Redroot damage rating (100=total damage to plant; 0=no damage to plant)
  pest or weed control at 250 g/ha: 20%
[2]; 15.625 g ai/ha, read-out: Barnyard grass damage rating (100=total damage to plant; 0=no damage to plant)
  pest or weed control at 15.625 g/ha: 10%
[2]; 62.5 g ai/ha, 100=total damage to plant, 0=no damage to plant, read-out: plant damage rating, Barnyardgrass
  pest or weed control at 62.5 g/ha: 70%
[2]; 250 g ai/ha, read-out: Barnyardgrass damage rating (100=total damage to plant; 0=no damage to plant)
  pest or weed control at 250 g/ha: 80%
[3]; 15.625 g ai/ha, read-out: Foxtail, Giant damage rating (100=total damage to plant; 0=no damage to plant)
  pest or weed control at 15.625 g/ha: 50%
[3]; 62.5 g ai/ha, 100=total damage to plant, 0=no damage to plant, read-out: plant damage rating, Foxtail, Giant
  pest or weed control at 62.5 g/ha: 80%
[3]; 250 g ai/ha, read-out: Foxtail, Giant damage rating (100=total damage to plant; 0=no damage to plant)
  pest or weed control at 250 g/ha: 90%
Corn (Zea mays) [4]; 15.625 g ai/ha, read-out: Corn damage rating (100=total damage to plant; 0=no damage to plant)
  plant injury at 15.625 g/ha: 0%
Corn (Zea mays) [4]; 62.5 g ai/ha, 100=total damage to plant, 0=no damage to plant, read-out: plant damage rating, Corn
  plant injury at 62.5 g/ha: 0%
Corn (Zea mays) [4]; 250 g ai/ha, read-out: Corn damage rating (100=total damage to plant; 0=no damage to plant)
  plant injury at 250 g/ha: 40%
[5]; 15.625 g ai/ha, read-out: Morning-glory, Ivy-leaved damage rating (100=total damage to plant; 0=no damage to plant)
  pest or weed control at 15.625 g/ha: 10%
[5]; 62.5 g ai/ha, 100=total damage to plant, 0=no damage to plant, read-out: plant damage rating, Morningglory, Ivy-leaved
  pest or weed control at 62.5 g/ha: 0%
[5]; 250 g ai/ha, read-out: Morningglory, Ivy-leaved damage rating (100=total damage to plant; 0=no damage to plant)
  pest or weed control at 250 g/ha: 10%
[6]; 15.625 g ai/ha, read-out: Velvetleaf damage rating (100=total damage to plant; 0=no damage to plant)
  pest or weed control at 15.625 g/ha: 0%
[6]; 62.5 g ai/ha, 100=total damage to plant, 0=no damage to plant, read-out: plant damage rating, Velvetleaf
  pest or weed control at 62.5 g/ha: 0%
[6]; 250 g ai/ha, read-out: Velvetleaf damage rating (100=total damage to plant; 0=no damage to plant)
  pest or weed control at 250 g/ha: 0%
[7]; 15.625 g ai/ha, evaluated after 13 days (100=total damage to plant; 0=no damage to plant), read-out: Pigweed, Redroot damage rating
  pest or weed control at 15.625 g/ha: 30%
[7]; 62.5 g ai/ha, evaluated after 13 days, read-out: Pigweed, Redroot damage rating (100=total damage to plant; 0=no damage to plant)
  pest or weed control at 62.5 g/ha: 0%
[7]; 250 g ai/ha, evaluated after 13 days, read-out: damage to plant, Pigweed, Redroot (100=total damage to plant; 0=no damage to plant)
  pest or weed control at 250 g/ha: 30%
[8]; 15.625 g ai/ha, evaluated after 13 days (100=total damage to plant; 0=no damage to plant), read-out: Barnyardgrass damage rating
  pest or weed control at 15.625 g/ha: 20%
[8]; 62.5 g ai/ha, evaluated after 13 days, read-out: Barnyardgrass damage rating (100=total damage to plant; 0=no damage to plant)
  pest or weed control at 62.5 g/ha: 50%
[8]; 250 g ai/ha, evaluated after 13 days, read-out: damage to plant, Barnyardgrass (100=total damage to plant; 0=no damage to plant)
  pest or weed control at 250 g/ha: 60%
[9]; 15.625 g ai/ha, evaluated after 13 days (100=total damage to plant; 0=no damage to plant), read-out: Foxtail, Giant damage rating
  pest or weed control at 15.625 g/ha: 60%
[9]; 62.5 g ai/ha, evaluated after 13 days, read-out: Foxtail, Giant damage rating (100=total damage to plant; 0=no damage to plant)
  pest or weed control at 62.5 g/ha: 70%
[9]; 250 g ai/ha, evaluated after 13 days, read-out: damage to plant, Foxtail, Giant (100=total damage to plant; 0=no damage to plant)
  pest or weed control at 250 g/ha: 70%
Corn (Zea mays) [10]; 15.625 g ai/ha, evaluated after 13 days (100=total damage to plant; 0=no damage to plant), read-out: Corn damage rating
  plant injury at 15.625 g/ha: 10%
Corn (Zea mays) [10]; 62.5 g ai/ha, evaluated after 13 days, read-out: Corn damage rating (100=total damage to plant; 0=no damage to plant)
  plant injury at 62.5 g/ha: 30%
Corn (Zea mays) [10]; 250 g ai/ha, evaluated after 13 days, read-out: damage to plant, Corn (100=total damage to plant; 0=no damage to plant)
  plant injury at 250 g/ha: 40%
[11]; 15.625 g ai/ha, evaluated after 13 days (100=total damage to plant; 0=no damage to plant), read-out: Morningglory, Ivy-leaved damage rating
  pest or weed control at 15.625 g/ha: 40%
[11]; 62.5 g ai/ha, evaluated after 13 days, read-out: Morningglory, Ivy-leaved damage rating (100=total damage to plant; 0=no damage to plant)
  pest or weed control at 62.5 g/ha: 50%
[11]; 250 g ai/ha, evaluated after 13 days, read-out: damage to plant, Morningglory, Ivy-leaved (100=total damage to plant; 0=no damage to plant)
  pest or weed control at 250 g/ha: 50%
[12]; 15.625 g ai/ha, evaluated after 13 days (100=total damage to plant; 0=no damage to plant), read-out: Velvetleaf damage rating
  pest or weed control at 15.625 g/ha: 10%
[12]; 62.5 g ai/ha, evaluated after 13 days, read-out: Velvetleaf damage rating (100=total damage to plant; 0=no damage to plant)
  pest or weed control at 62.5 g/ha: 0%
[12]; 250 g ai/ha, evaluated after 13 days, read-out: damage to plant, Velvetleaf (100=total damage to plant; 0=no damage to plant)
  pest or weed control at 250 g/ha: 20%
